Structures are written as SMILES. Entries after “also recorded” stand apart in the source; their conditions may differ.

One data set has as its system C57BL/6J mice. Kind of data set: In vivo mouse model of skin and systemic toxicity (Biological Example 6b). The following applies: topically applied 1%, twice daily 5 days per week. On the procedure: These mice are also shaved weekly.
Biological Example 6b was carried out with the following arms: oral vehicle, oral Trametinib, topical vehicle, and topical Trametinib (1%).

Data set [1] can be described thus: S9 Stability Assay, human liver S9 fraction. Format: in vitro ADME. On the procedure: Compounds were assessed for metabolic stability in human skin by assessing their rate of disappearance from human S9 skin fraction. Similarly, compounds were assessed for metabolic stability in human liver by assessing their rate of disappearance from human S9 liver fraction. The protocol below can be used to assess the difference between skin and hepatic metabolism.
The assay was carried out in 96-well microtiter plates at 37° C. Reaction mixtures (25 μL) contained a final concentration of 1 μM test compound, 2 mg/mL liver or skin S9 protein, and 1 mM NADPH in buffer (100 mM potassium phosphate, pH 7.4 buffer with 1 mM EDTA, 3 mM MgCl2). At each of the time points (0, 15, 30, and 60 minutes), 150 μL of quench solution (100% acetonitrile with 0.1% formic acid) with internal standard was transferred to each well. Besides the zero minute controls, mixtures containing the same components except the NADPH were also prepared as the negative control. Verapamil or testosterone was included as a positive control to verify assay performance. Plates were sealed and centrifuged at 4° C. for 15 minutes at 4000 rpm. The supernatant was transferred to fresh plates for LC/MS/MS analysis.
All samples were analyzed on LC/MS/MS using an AB Sciex API 4000 instrument, coupled to a Shimadzu LC-20AD LC Pump system. Analytical samples were separated using a Waters Atlantis T3 dC18 reverse phase HPLC column (20 mm×2.1 mm) at a flow rate of 0.5 mL/min. The mobile phase consisted of 0.1% formic acid in water (solvent A) and 0.1% formic acid in 100% acetonitrile (solvent B).
The extent of metabolism was calculated as the disappearance of the test compound, compared to the 0-min control reaction incubations. Initial rates were calculated for the compound concentration and used to determine t1/2 values and subsequently, the intrinsic clearance, CLint=(0.693) (1/t1/2 (min)) (mL incubation/mg of S9 protein).

A further data set concerns the target T1, MAP2K1 (MEK1) (Homo sapiens, UniProt Q02750).
T1 construct: purchased ThermoFisher
The data set can be described thus: MEK Inhibition Assay (Biological Example 1b, Z'-LYTE). The note with it: Biological Example 1b (compounds 1, 3, 5, 7-8); read-out: Assay 1: biochemical MEK IC50. As to the method:
MEK1 inhibitory activity of compounds were tested using the following procedure (protocol available at thermofisher.com/content/dam/LifeTech/migration/files/drug-discovery/pdfs.par.60256.file.dat/20130430%20ssbk%20customer%20protocol%20and%20assay%20conditions.pdf). The Z′-LYTE biochemical assay (ThermoFisher) employs a fluorescence-based, coupled-enzyme format and is based on the differential sensitivity of phosphorylated and non-phosphorylated peptides to proteolytic cleavage.
Test compounds in 100% DMSO were screened in 1% DMSO (final) in the well. For 10 point titrations, 3-fold serial dilutions are conducted from the starting concentration of 30 μM.
After the 1 hour incubation, 5 μL of a 1:1024 dilution of Development Reagent A (available from Invitrogen, catalog no. PV3295) was added.
ATP solutions were diluted to a 4× working concentration in Kinase Buffer (50 mM HEPES pH 7.5, 0.01% BRIJ-35, 10 mM MgCl2, 1 mM EGTA). ATP Km apparent was previously determined using a Z′-LYTE assay. The Development Reagent was diluted in Development Buffer (available from Invitrogen, catalog no. P3127).
Assay Protocol: 2.5 μL of 4× test compound or 100 nL of 100× Test Compound plus 2.4 μL Kinase Buffer, 5 μL of the 2× Peptide/Kinase Mixture, 2.5 μL of 4×ATP Solution were added to the plates and placed on a shake plate for 30-seconds. The kinase reaction was allowed to proceed for 60-minute at room temperature, before 5 μL of Development Reagent Solution was added, and the mixture agitated for 30-seconds on a shake plate. The mixture was incubated for 60-minute at room temperature. Fluorescence was measured using a plate reader and the data were analyzed.
This control yielded 100% cleaved peptide in the Development Reaction. The 100% Phosphorylation Control, which consisted of a synthetically phosphorylated peptide of the same sequence as the peptide substrate, was designed to allow for the calculation of percent phosphorylation. This control yielded a very low percentage of cleaved peptide in the Development Reaction. The 0% Phosphorylation and 100% Phosphorylation Controls allow for the calculation of the percent phosphorylation achieved in a specific reaction well.
The minimum emission ratio in a screen was established by the 0% Inhibition Control, which contained active kinase. This control was designed to produce a 10-50% phosphorylated peptide in the Kinase Reaction. Cascade assays may produce up to 70% phosphorylated peptide.
A known inhibitor control standard curve, 10 point titration, was run for each individual kinase on the same plate as the kinase to ensure the kinase was inhibited within an expected IC50 range previously determined.
The following controls are prepared for each concentration of Test Compound assayed. […] The expected value for a non-interfering compound should be 100%. Any value outside of 90% to 110% was flagged. […] The expected value for a non-fluorescence compound should be 0%. Any value >20% was flagged.
The data in Table A was calculated. XLfit from IDBS was used. The dose response curve was curve fit to model number 205 (sigmoidal dose-response model).

Data set [2] relates to p-ERK in human cutaneous neurofibroma explants. The data set can be described thus: Human cutaneous neurofibroma explant p-ERK suppression (Biological Example 7). Format: cell-based. The following applies: topical gel formulation (1%), harvested at 4 hours, vs vehicle gel. An excerpt:
The primary objective was to assess the efficacy of a topically-formulated compound described herein in suppressing p-ERK, a downstream biomarker of RAS/MAPK signaling in neurofibroma explants. The secondary objectives was to assess permeability (where the compound was applied topically) of neurofibroma explants treated with a compound described herein.
Primary dermal neurofibromas or cutaneous neurofibromas were obtained from patients with clinical or genetic diagnoses of NF1. Discarded human neurofibromas samples were obtained from the Stanford Surgery Clinic, using an approved human subjects protocol (Stanford IRB #18325). Specimens were identified under the direction of the Principal Investigator and placed in cell proliferation media (DMEM/F12 containing penicillin/streptomycin (0.1%); fungizone (40 μg/mL); B27 (without vitamin A).
Specimens were identified under the direction of the Principal Investigator
Specimens were chopped into 2 mm fragments and placed in 24-well plates containing cell proliferation media (DMEM/F12 containing penicillin/streptomycin (0.1%); fungizone (40 μg/mL); B27 (without vitamin A) and submerged in media with drug. For topical gel application, samples were placed in 96 well plates with epidermal surface exposed to air. […]

T1 sequence (Q02750 whole entry): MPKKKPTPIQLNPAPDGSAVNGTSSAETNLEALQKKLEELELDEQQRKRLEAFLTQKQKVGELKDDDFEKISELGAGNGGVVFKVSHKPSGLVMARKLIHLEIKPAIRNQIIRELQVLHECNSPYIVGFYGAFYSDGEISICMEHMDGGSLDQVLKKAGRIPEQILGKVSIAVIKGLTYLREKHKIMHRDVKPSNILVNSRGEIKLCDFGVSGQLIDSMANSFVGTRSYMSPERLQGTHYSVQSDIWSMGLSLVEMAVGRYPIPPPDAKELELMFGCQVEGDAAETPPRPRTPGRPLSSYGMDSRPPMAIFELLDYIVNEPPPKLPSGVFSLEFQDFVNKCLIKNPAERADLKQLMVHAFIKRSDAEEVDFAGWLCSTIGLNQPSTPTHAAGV

As to `CC(=O)Nc1cccc(-n2c(=O)n(C3CC3)c(=O)c3c(Nc4ccc(I)cc4F)n(C)c(=O)c(C)c32)c1` [trametinib], the “toxicity of topical application” value in the data set with C57BL/6J mice is recorded as “found dead, or had to be sacrificed due to unacceptable weight loss; also recorded: significant toxicity”.
Take `O=C(NOCCO)c1c(Nc2ccc(I)cc2F)sc2ncc(F)cc12` [Ex. 8, 2-((2-Fluoro-4-iodophenyl)amino)-N-(2-hydroxyethoxy)-5-fluorothieno[2,3-b]pyridine-3-carboxamide]: in data set [1] (human liver S9), the “Assay 5: human liver S9 intrinsic clearance value (μL/min/mg protein)” value worked out at 57.15 μL/min/mg protein. In addition, the half-life at 1 μM in data set [1] (pH 7.4, Table 1, human liver S9 fraction, 1 μM test compound, 2 mg/mL S9 protein, NADPH, read-out: Liver S9 t1/2) stood at 6 min. In addition, the microsomal CLint at 1 μM in data set [1] (pH 7.4, Table 1, human liver S9 fraction, read-out: CLint (μL/min/mg protein)) came to 57.1 µL/min/mg. Further, the IC50 on MAP2K1 (MEK1) is 256 nM. Besides, in data set [2], the “p-ERK in human cutaneous neurofibroma explants” value was “suppression of p-ERK”.

Values taken from patent US11542271B2, “Fused heteroaromatic-aniline compounds for treatment of dermal disorders” (NFlection Therapeutics, Inc., priority 2017, dated 2023).
